{"source": "patent US7547759B2", "about": "“Induction of tumor immunity by variants of folate binding protein” (Board of Regents, The University of Texas System, priority 2001, dated 2009)", "key": {"[1]": {"test_system": "peripheral blood mononuclear cells (PBMC)", "experiment": "CTL activity in PBMC with multiple peptide stimulations", "assay_type": "cell-based, human", "details": "for CTL activity: recognition of E39: healthy donor PBMC stimulated three times with the peptide, then restimulated with E39", "text": "FIG. 2B illustrates CTL activity in PBMC with multiple stimulations with J65 or E39.\nCTL activity can be assessed by methods described herein or as would be known to one of skill in the art. For example, CTLs may be assessed in freshly isolated peripheral blood mononuclear cells (PBMC), in a phytohaemaglutinin-stimulated IL-2 expanded cell line established from PBMC (Bernard et at., 1998) or by T cells isolated from a previously immunized subject and restimulated for 6 days with DC infected with an adenovirus vector containing antigen using standard 4 h 51^Cr release microtoxicity assays. In another fluorometric assay developed for detecting cell-mediated cytotoxicity, the fluorophore used is the non-toxic molecule ALAMARBLUE (dye) (Nociari et at., 1998). The ALAMARBLUE (dye) is fluorescently quenched (i.e., low quantum yield) until mitochondrial reduction occurs, which then results in a dramatic increase in the alamarBlue fluorescence intensity (i.e., increase in the quantum yield).\n(§1) To address the effects of FBP variants on induction of CTL activity, PBMC cultures from the healthy donor stimulated three times with J65 were split in three and restimulated with either E39 or J65 or J77. A control culture was made of the same PBMC stimulated three times with E39 and restimulated with E39 for the fourth time. […] It was recently reported that memory CTL reacting with the tumor Ag such as FBP are present in the blood of healthy individuals (Lee et al., 2000). These cells can be easily activated by stimulation with the corresponding peptide presented on dendritic cells (Kim et al., 1999). To evaluate the stimulating ability of the analogs J65 and J77, PBMC from a responding donor were stimulated with E39, J65 and J77."}, "[2]": {"test_system": "peripheral blood mononuclear cells (PBMC)", "experiment": "Specific IL-2 induction in PBMC by priming with E39 variants", "assay_type": "cell-based, human", "details": "PBMC of responding donor; compared with wild-type peptide E39; FIG. 3", "text": "FIG. 3 illustrates specific interleukin 2 (IL-2) induction in PBMCs by priming with E39 variants.\n(§2) To identify which of E39 variants induced higher cell expansion, PBMC from the same donor were stimulated three times with the corresponding peptide, and the resulting live cells were counted a week after each stimulation. […] Similar results were obtained with J65 in another donor (FIG. 5)."}, "[3]": {"test_system": "peripheral blood mononuclear cells (PBMC)", "experiment": "IFN-γ induction in PBMC with multiple peptide stimulations", "assay_type": "cell-based, human", "text": "FIG. 2A illustrates IFN-γ induction in peripheral blood mononuclear cells (PBMC) with multiple stimulations with J65 or E39.\n(§3) The HLA-A2 stabilizing ability of the variant peptides has also been determined (FIG. 1). […] In contrast, substitutions at position 1 increase the binding affinity of the peptide. The results in FIG. 2 show the cytolytic activity of J65-induced CTL compared with E39-induced CTL.\nas §1"}, "[4]": {"test_system": "peripheral blood mononuclear cells (PBMC)", "experiment": "Expansion of PBMC stimulated with FBP peptide E39 and its variants (live cell counts)", "assay_type": "cell-based, human", "text": "FIG. 4 illustrates expansion of PBMCs stimulated with FBP peptide E39 and its variants.\nas §2"}, "HLA-A2": {"test_system": "HLA-A2", "experiment": "HLA-A2 stabilization by FBP epitope E39 variants", "assay_type": "binding, human", "details": "FIG. 1; compared with wild-type E39", "text": "as §3"}, "HLA-A2 (human)": {"target": "HLA-A2 (human)", "experiment": "HLA-A2 stabilization assay (FIG. 1)"}, "[5]": {"details": "same donor, stimulated three times with peptide, live cells counted a week after each stimulation, FIG. 4"}}, "note": "Entries after “also recorded” stand apart in the source; their conditions may differ."}
{"molecule": "EIWTFSTKV [J65, E39 variant H5→F, Y7→T]", "values": [{"measurement": "CTL activity: recognition of E39", "setting": "[1]", "value": "significantly higher recognition of E39; also recorded: higher CTL activity"}, {"measurement": "IL-2 induction", "setting": "[2]", "value": "lower levels of IL-2"}, {"measurement": "IFN-γ induction", "setting": "[3]; 3×J65 stimulated PBMC cultures restimulated with the peptide, FIG. 2", "value": "weaker inducer of IFN-γ"}, {"measurement": "IFN-γ secretion elicited by wild-type epitope E39 in peptide-primed CTL", "setting": "[3]; CTL primed with the peptide, then stimulated with E39", "value": "higher"}, {"measurement": "cell expansion of PBMC cultures", "setting": "[4]; another donor, FIG. 5", "value": "expanded faster"}, {"measurement": "cell expansion of PBMC cultures", "setting": "[4]; [5]", "value": "increased faster in numbers"}, {"measurement": "HLA-A2 stabilizing ability", "setting": "HLA-A2", "value": "almost half of the stabilizing ability of E39"}]}
{"molecule": "EIWTFSYKV [J78, E39 variant H5→F]", "values": [{"measurement": "cell expansion of PBMC cultures", "setting": "[4]; another donor, FIG. 5", "value": "expanded, but at a slower rate"}, {"measurement": "cell expansion of PBMC cultures", "setting": "[4]; [5]", "value": "proliferated slower than control cultures"}]}
{"molecule": "EIWTHSTKV [J77, E39 variant Y7→T]", "values": [{"measurement": "CTL activity", "setting": "[1]; healthy donor PBMC stimulated three times with J65 (3×J65), restimulated with the peptide", "value": "significantly lower CTL activity"}, {"measurement": "IL-2 induction", "setting": "[2]", "value": "lower levels of IL-2"}, {"measurement": "cell expansion of PBMC cultures", "setting": "[4]; another donor, FIG. 5", "value": "expanded, but at a slower rate"}, {"measurement": "cell expansion of PBMC cultures", "setting": "[4]; [5]", "value": "proliferated slower than control cultures"}]}
{"molecule": "EIWTHSYKV [E39, reference compound]", "values": [{"measurement": "CTL activity: recognition of E39", "setting": "[1]", "value": "moderate weak recognition of E39"}, {"measurement": "cell expansion of PBMC cultures", "setting": "[4]; another donor, FIG. 5", "value": "died after the third stimulation"}, {"measurement": "cell expansion of PBMC cultures", "setting": "[4]; [5]", "value": "initially expanded faster than other cultures"}]}
{"molecule": "EIWTFSTKV", "note": "[J65 (variant of FBP epitope E39, H5→F, Y7→T)]", "values": [{"measurement": "HLA-A2 stabilizing ability relative to E39", "setting": "HLA-A2 (human)", "value": "0.5 fold of E39"}]}
